Test results as given in patent US6914045B2, “Glycopeptide antibiotics” (Wyeth Holdings Corporation, priority 2001, dated 2005).
≈ marks a conversion by molar mass, not a printed value.

Columns and labels:
Experiment in all cases: in vitro antibacterial evaluation, MIC by broth dilution
Format in all cases: cell-based
Enterococcus sp. = details: broth dilution, 18 hours at 35° C.
Summary of the method: (§1)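 MIC, the lowest antibiotic concentration preventing growth, was read across 64-0.06 μg/mL with 5×10^5 CFU/mL inoculum. Method followed NCCLS M7-A2 broth dilution using Mueller-Hinton II; Gram-positive strains covered recent methicillin-, penicillin- and/or vancomycin-resistant clinical isolates.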

Staphylococcus sp. = details: broth dilution, 18 hours at 35° C.
Summary of the method: as §1

Streptococcus sp. = details: broth dilution, 18 hours at 35° C.
Summary of the method: as §1

Escherichia coli = details: 18 hours at 35° C.
Summary of the method: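 MIC is the lowest antibiotic concentration (tested 64-0.06 μg/mL) preventing growth of a 5×10^5 CFU/mL inoculum. Determined by broth dilution in Mueller-Hinton II medium following NCCLS standard M7-A2.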

MIC Enterococcus avium (GC 4558) (Enterococcus sp.; Enterococcus avium (GC 4558)): 128 µg/mL (≈ 88.2 µM)
MIC Enterococcus faecalis (ATCC 29212) (Enterococcus sp.; Enterococcus faecalis (ATCC 29212)): >128 µg/mL
MIC Enterococcus faecalis (GC 4552) (Enterococcus sp.; Enterococcus faecalis (GC 4552)): >128 µg/mL
MIC Enterococcus faecalis (GC 4553) (Enterococcus sp.; Enterococcus faecalis (GC 4553)): 128 µg/mL (≈ 88.2 µM)
MIC Enterococcus faecalis (GC 4554) (Enterococcus sp.; Enterococcus faecalis (GC 4554)): >128 µg/mL
MIC Enterococcus faecalis (GC 6189) (Enterococcus sp.; Enterococcus faecalis (GC 6189)): >128 µg/mL
MIC Enterococcus faecium (GC 2243) (Enterococcus sp.; Enterococcus faecium (GC 2243)): >128 µg/mL
MIC Enterococcus faecium (GC 4556) (Enterococcus sp.; Enterococcus faecium (GC 4556)): >128 µg/mL
MIC Enterococcus faecium (GC 4557) (Enterococcus sp.; Enterococcus faecium (GC 4557)): 128 µg/mL (≈ 88.2 µM)
MIC Enterococcus avium (GC 4558) (Enterococcus sp.): 128 µg/mL (≈ 88.2 µM)
MIC Enterococcus faecalis (ATCC 29212) (Enterococcus sp.): >128 µg/mL
MIC Enterococcus faecalis (GC 2242) (Enterococcus sp.): >128 µg/mL
MIC Enterococcus faecalis (GC 2691) (Enterococcus sp.): >128 µg/mL
MIC Enterococcus faecalis (GC 3059) (Enterococcus sp.): >128 µg/mL
MIC Enterococcus faecalis (GC 4552) (Enterococcus sp.): >128 µg/mL
MIC Enterococcus faecalis (GC 4553) (Enterococcus sp.): 128 µg/mL (≈ 88.2 µM)
MIC Enterococcus faecalis (GC 4554) (Enterococcus sp.): >128 µg/mL
MIC Enterococcus faecalis (GC 6189) (Enterococcus sp.): >128 µg/mL
MIC Enterococcus faecium (GC 2243) (Enterococcus sp.): >128 µg/mL
MIC Enterococcus faecium (GC 4556) (Enterococcus sp.): >128 µg/mL
MIC Enterococcus faecium (GC 4557) (Enterococcus sp.): 128 µg/mL (≈ 88.2 µM)
MIC Enterococcus faecalis (GC 2242) (Enterococcus sp.; strain GC 2242): >128 µg/mL
MIC Enterococcus faecalis (GC 2691) (Enterococcus sp.; strain GC 2691): >128 µg/mL
MIC Enterococcus faecalis (GC 3059) (Enterococcus sp.; strain GC 3059): >128 µg/mL
MIC Coagulase Negative Staphylococcus (GC 4547) (Staphylococcus sp.): >128 µg/mL
MIC Coagulase Negative Staphylococcus (GC 4548) (Staphylococcus sp.): >128 µg/mL
MIC Coagulase Negative Staphylococcus (GC 4549) (Staphylococcus sp.): >128 µg/mL
MIC Coagulase Negative Staphylococcus (GC 4551) (Staphylococcus sp.): >128 µg/mL
MIC Staphylococcus aureus-SMITH (GC 4543) (Staphylococcus sp.): >128 µg/mL
MIC Staphylococcus aureus (ATCC 29213) (Staphylococcus sp.; strain ATCC 29213): >128 µg/mL
MIC Staphylococcus aureus (GC 1131) (Staphylococcus sp.; strain GC 1131): >128 µg/mL
MIC Staphylococcus aureus (GC 3051) (Staphylococcus sp.; strain GC 3051): >128 µg/mL
MIC Staphylococcus aureus (GC 3053) (Staphylococcus sp.; strain GC 3053): >128 µg/mL
MIC Staphylococcus aureus (GC 4541) (Staphylococcus sp.; strain GC 4541): >128 µg/mL
MIC Staphylococcus aureus (GC 4542) (Staphylococcus sp.; strain GC 4542): >128 µg/mL
MIC Staphylococcus aureus-SMITH (GC 4543) (Staphylococcus sp.; strain GC 4543): >128 µg/mL
MIC Staphylococcus aureus (GC 4544) (Staphylococcus sp.; strain GC 4544): >128 µg/mL
MIC Staphylococcus aureus (GC 4545) (Staphylococcus sp.; strain GC 4545): >128 µg/mL
MIC Coagulase Negative Staphylococcus (GC 4547) (Staphylococcus sp.; strain GC 4547): >128 µg/mL
MIC Coagulase Negative Staphylococcus (GC 4548) (Staphylococcus sp.; strain GC 4548): >128 µg/mL
MIC Coagulase Negative Staphylococcus (GC 4549) (Staphylococcus sp.; strain GC 4549): >128 µg/mL
MIC Coagulase Negative Staphylococcus (GC 4551) (Staphylococcus sp.; strain GC 4551): >128 µg/mL
MIC Streptococcus agalactiae (GC 4564) (Streptococcus sp.): >128 µg/mL
MIC Streptococcus pneumoniae (ATCC 6301) (Streptococcus sp.): 128 µg/mL (≈ 88.2 µM)
MIC Streptococcus pneumoniae (GC 1894) (Streptococcus sp.): 128 µg/mL (≈ 88.2 µM)
MIC Streptococcus pneumoniae (GC 4565) (Streptococcus sp.): 128 µg/mL (≈ 88.2 µM)
MIC Streptococcus pyogenes (GC 4563) (Streptococcus sp.): >128 µg/mL
MIC Streptococcus pneumoniae (ATCC 6301) (Streptococcus sp.; strain ATCC 6301): 128 µg/mL (≈ 88.2 µM)
MIC Streptococcus pneumoniae (GC 1894) (Streptococcus sp.; strain GC 1894): 128 µg/mL (≈ 88.2 µM)
MIC Streptococcus pyogenes (GC 4563) (Streptococcus sp.; strain GC 4563): >128 µg/mL
MIC Streptococcus agalactiae (GC 4564) (Streptococcus sp.; strain GC 4564): >128 µg/mL
MIC Streptococcus pneumoniae (GC 4565) (Streptococcus sp.; strain GC 4565): 128 µg/mL (≈ 88.2 µM)
MIC Escherichia coli (ATCC 25922) (Escherichia coli): >128 µg/mL
MIC Escherichia coli (GC 4559) (Escherichia coli): >128 µg/mL
MIC Escherichia coli (GC 4560) (Escherichia coli): >128 µg/mL
Compound: CC(c1ccccc1)C1NC(=O)CNC(=O)C(CO)NC(=O)C(C(O)C2CN(c3ncccn3)C(=N)N2C2OC(CO)C(O)C(O)C2O)NC(=O)C(C(O)C2CNC(=Nc3ncccn3)N2)NC(=O)C(Cc2ccc(OC3OC(CO)C(OC4OC(CO)C(O)C(O)C4O)C(O)C3O)cc2)NC1=O (stereo not drawn) [Example 92, Cyclo[glycyl-β-methylphenylalanyl-O-(4-O-hexolpyranosylhexopyranosyl)tyrosyl-3-[2-(pyrimidin-2-ylimino)imidazolidin-4-yl]seryl-3-[3-hexopyranosyl-2-imino-1-(pyrimidin-2-yl)imidazolidin-4-yl]serylseryl]]
MIC Staphylococcus haemolyticus (GC 4546) (Staphylococcus sp.): >128 µg/mL
MIC Staphylococcus haemolyticus (GC 4546) (Staphylococcus sp.; strain GC 4546): >128 µg/mL
